{"source": "patent US20260217701A1", "about": "“SELECTIVE BET INHIBITORS AND USES THEREOF” (Tay Therapeutics Limited, priority 2022, published 2026)", "test_system": "imiquimod-induced psoriasis", "assay": "Imiquimod-induced psoriasis model", "format": "in vivo, mice", "set-up": "Spleen Weight / Spleen Weight Ratio: unit not given here", "details": "for Mean scores of the presence of erythema on the skin of animals at the area of induction of psoriasis / Mean scores of the presence of induration on the skin of animals at the area of induction of psoriasis / Mean scores of the presence of peeling on the skin of animals at the area of induction of psoriasis: mean ± SEM", "summary_of_the_method": "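Psoriasis-like dermatitis induced in mice by daily dorsal imiquimod cream (Days 1–14); dosing with Compound A (5% DMSO/40% PEG-400/55% saline vehicle) began Day 8. Read-outs: summed 0–4 scores for erythema, induration and peeling daily to Day 15, plus terminal spleen ratio, behaviour and serum cytokines.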", "key": {"[1]": {"details": "IMI + 1 mg/kg, D8 (before start of treatment)"}, "[2]": {"details": "IMI + 3 mg/kg, D8 (before start of treatment)"}}, "note": "Where “and” joins values, the source holds several entries; their conditions need not be identical. Equal entries are not always repeated.", "data": [{"smiles": "COCCn1cc(-c2ccccc2)c(-c2cn(C)c(=O)c3[nH]c(-c4cnn(C(F)(F)F)c4)cc23)cc1=O", "note": "[Compound B, 4-(1-(2-methoxyethyl)-2-oxo-5-phenyl-1,2-dihydropyridin-4-yl)-6-methyl-2-(1-(trifluoromethyl)-1H-pyrazol-4-yl)-1,6-dihydro-7H-pyrrolo[2,3-c]pyridin-7-one]", "values": [{"measurement": "Spleen Weight Ratio", "setting": "IMI-psoriasis model, mice, 10 mg/kg, individual animals", "value": "1026.10 and 1000.89 and 999.24 and 691.05 and 654.43 and 926.75 and 782.83 and 888.53"}, {"measurement": "Spleen Weight Ratio", "setting": "day 15, 1, 3, 10 mg/kg", "value": "dose-dependent decrease"}, {"measurement": "efficacy on the treatment of psoriasis", "setting": "highest tested dose of 10 mg/kg", "value": "very good efficacy"}, {"measurement": "Mean scores of the presence of erythema on the skin of animals at the area of induction of psoriasis", "setting": "[1]", "value": "2.1 ± 0.1"}, {"measurement": "Mean scores of the presence of induration on the skin of animals at the area of induction of psoriasis", "setting": "[1]", "value": "2.5 ± 0.2"}, {"measurement": "Mean scores of the presence of peeling on the skin of animals at the area of induction of psoriasis", "setting": "[1]", "value": "2.1 ± 0.1"}, {"measurement": "Mean scores of the presence of erythema on the skin of animals at the area of induction of psoriasis", "setting": "IMI + 1 mg/kg, D9", "value": "1.8 ± 0.2"}, {"measurement": "Mean scores of the presence of induration on the skin of animals at the area of induction of psoriasis", "setting": "IMI + 1 mg/kg, D9", "value": "2.5 ± 0.2"}, {"measurement": "Mean scores of the presence of peeling on the skin of animals at the area of induction of psoriasis", "setting": "IMI + 1 mg/kg, D9", "value": "2.5 ± 0.3"}, {"measurement": "Mean scores of the presence of erythema on the skin of animals at the area of induction of psoriasis", "setting": "IMI + 1 mg/kg, D10", "value": "1.8 ± 0.2"}, {"measurement": "Mean scores of the presence of induration on the skin of animals at the area of induction of psoriasis", "setting": "IMI + 1 mg/kg, D10", "value": "2.3 ± 0.2"}, {"measurement": "Mean scores of the presence of peeling on the skin of animals at the area of induction of psoriasis", "setting": "IMI + 1 mg/kg, D10", "value": "2.0 ± 0.2"}, {"measurement": "Mean scores of the presence of erythema on the skin of animals at the area of induction of psoriasis", "setting": "IMI + 1 mg/kg, D11", "value": "2.3 ± 0.2"}, {"measurement": "Mean scores of the presence of induration on the skin of animals at the area of induction of psoriasis", "setting": "IMI + 1 mg/kg, D11", "value": "2.3 ± 0.3"}, {"measurement": "Mean scores of the presence of peeling on the skin of animals at the area of induction of psoriasis", "setting": "IMI + 1 mg/kg, D11", "value": "2.0 ± 0.1"}, {"measurement": "Mean scores of the presence of erythema on the skin of animals at the area of induction of psoriasis", "setting": "IMI + 1 mg/kg, D12", "value": "1.8 ± 0.2"}, {"measurement": "Mean scores of the presence of induration on the skin of animals at the area of induction of psoriasis", "setting": "IMI + 1 mg/kg, D12", "value": "2.0 ± 0.0"}, {"measurement": "Mean scores of the presence of peeling on the skin of animals at the area of induction of psoriasis", "setting": "IMI + 1 mg/kg, D12", "value": "1.9 ± 0.1"}, {"measurement": "Mean scores of the presence of erythema on the skin of animals at the area of induction of psoriasis", "setting": "IMI + 1 mg/kg, D13", "value": "1.5 ± 0.3"}, {"measurement": "Mean scores of the presence of induration on the skin of animals at the area of induction of psoriasis", "setting": "IMI + 1 mg/kg, D13", "value": "2.0 ± 0.0"}, {"measurement": "Mean scores of the presence of peeling on the skin of animals at the area of induction of psoriasis", "setting": "IMI + 1 mg/kg, D13", "value": "2.0 ± 0.3"}, {"measurement": "Mean scores of the presence of erythema on the skin of animals at the area of induction of psoriasis", "setting": "IMI + 1 mg/kg, D14", "value": "1.8 ± 0.3"}, {"measurement": "Mean scores of the presence of induration on the skin of animals at the area of induction of psoriasis", "setting": "IMI + 1 mg/kg, D14", "value": "2.0 ± 0.0"}, {"measurement": "Mean scores of the presence of peeling on the skin of animals at the area of induction of psoriasis", "setting": "IMI + 1 mg/kg, D14", "value": "1.9 ± 0.2"}, {"measurement": "Mean scores of the presence of erythema on the skin of animals at the area of induction of psoriasis", "setting": "IMI + 1 mg/kg, D15", "value": "1.5 ± 0.2"}, {"measurement": "Mean scores of the presence of induration on the skin of animals at the area of induction of psoriasis", "setting": "IMI + 1 mg/kg, D15", "value": "1.9 ± 0.1"}, {"measurement": "Mean scores of the presence of peeling on the skin of animals at the area of induction of psoriasis", "setting": "IMI + 1 mg/kg, D15", "value": "1.8 ± 0.3"}, {"measurement": "Mean scores of the presence of erythema on the skin of animals at the area of induction of psoriasis", "setting": "[2]", "value": "2.4 ± 0.2"}, {"measurement": "Mean scores of the presence of induration on the skin of animals at the area of induction of psoriasis", "setting": "[2]", "value": "2.6 ± 0.2"}, {"measurement": "Mean scores of the presence of peeling on the skin of animals at the area of induction of psoriasis", "setting": "[2]", "value": "2.6 ± 0.3"}, {"measurement": "Mean scores of the presence of erythema on the skin of animals at the area of induction of psoriasis", "setting": "IMI + 3 mg/kg, D9", "value": "1.9 ± 0.3"}, {"measurement": "Mean scores of the presence of induration on the skin of animals at the area of induction of psoriasis", "setting": "IMI + 3 mg/kg, D9", "value": "2.0 ± 0.0"}, {"measurement": "Mean scores of the presence of peeling on the skin of animals at the area of induction of psoriasis", "setting": "IMI + 3 mg/kg, D9", "value": "2.1 ± 0.0"}, {"measurement": "Mean scores of the presence of erythema on the skin of animals at the area of induction of psoriasis", "setting": "IMI + 3 mg/kg, D10", "value": "1.6 ± 0.2"}, {"measurement": "Mean scores of the presence of induration on the skin of animals at the area of induction of psoriasis", "setting": "IMI + 3 mg/kg, D10", "value": "2.1 ± 0.1"}, {"measurement": "Mean scores of the presence of peeling on the skin of animals at the area of induction of psoriasis", "setting": "IMI + 3 mg/kg, D10", "value": "2.0 ± 0.2"}, {"measurement": "Mean scores of the presence of erythema on the skin of animals at the area of induction of psoriasis", "setting": "IMI + 3 mg/kg, D11", "value": "1.9 ± 0.2"}, {"measurement": "Mean scores of the presence of induration on the skin of animals at the area of induction of psoriasis", "setting": "IMI + 3 mg/kg, D11", "value": "1.7 ± 0.2"}, {"measurement": "Mean scores of the presence of peeling on the skin of animals at the area of induction of psoriasis", "setting": "IMI + 3 mg/kg, D11", "value": "1.9 ± 0.1"}, {"measurement": "Mean scores of the presence of erythema on the skin of animals at the area of induction of psoriasis", "setting": "IMI + 3 mg/kg, D12", "value": "1.9 ± 0.1"}, {"measurement": "Mean scores of the presence of induration on the skin of animals at the area of induction of psoriasis", "setting": "IMI + 3 mg/kg, D12", "value": "1.9 ± 0.1"}, {"measurement": "Mean scores of the presence of peeling on the skin of animals at the area of induction of psoriasis", "setting": "IMI + 3 mg/kg, D12", "value": "1.6 ± 0.2"}, {"measurement": "Mean scores of the presence of erythema on the skin of animals at the area of induction of psoriasis", "setting": "IMI + 3 mg/kg, D13", "value": "1.5 ± 0.2"}, {"measurement": "Mean scores of the presence of induration on the skin of animals at the area of induction of psoriasis", "setting": "IMI + 3 mg/kg, D13", "value": "1.9 ± 0.1"}, {"measurement": "Mean scores of the presence of peeling on the skin of animals at the area of induction of psoriasis", "setting": "IMI + 3 mg/kg, D13", "value": "1.6 ± 0.2"}, {"measurement": "Mean scores of the presence of erythema on the skin of animals at the area of induction of psoriasis", "setting": "IMI + 3 mg/kg, D14", "value": "1.3 ± 0.2"}, {"measurement": "Mean scores of the presence of induration on the skin of animals at the area of induction of psoriasis", "setting": "IMI + 3 mg/kg, D14", "value": "1.9 ± 0.1"}, {"measurement": "Mean scores of the presence of peeling on the skin of animals at the area of induction of psoriasis", "setting": "IMI + 3 mg/kg, D14", "value": "1.5 ± 0.1"}, {"measurement": "Mean scores of the presence of erythema on the skin of animals at the area of induction of psoriasis", "setting": "IMI + 3 mg/kg, D15", "value": "0.9 ± 0.2"}, {"measurement": "Mean scores of the presence of induration on the skin of animals at the area of induction of psoriasis", "setting": "IMI + 3 mg/kg, D15", "value": "1.4 ± 0.2"}]}]}
